The test system of data set [1] is SW480. As to the kind of experiment: Inhibition of Wnt/beta-catenin transactivation signalling in human SW480 cells transfected with beta-catenin plasmid at 10 uM by TOPFlash luciferase assay. Format: cell-based.
Data set [2] concerns the target CYP2C9 (Homo sapiens, UniProt P11712). Briefly: Inhibition of CYP2C9 in human liver microsomes using tolbutamide as substrate at 10 uM in presence of NADPH incubated for 10 mins. The format is ADME, Microsome. The following applies: probe tolbutamide. A general note: Liver microsomes are a subcellular fraction often used to study metabolism.
Data set [3] concerns MCF-10A. As to the kind of experiment: Antiproliferative activity against human MCF-10A cells assessed as inhibition of cell growth measured by MTS method. Format: functional, cell-based. In general terms: Tetrazolium dyes change colour on reduction, which living cells bring about.
Data set [4] is described as follows: Metabolic stability in mouse Hepatocyte assessed as half life. Format: ADME, cell-based. The following applies: hepatocytes.
A short description of data set [5]: Inhibition of Wnt/beta-catenin transactivation signalling in human SW480 cells by TOPFlash reporter gene assay. Format: cell-based. Background: Reporter assays use an easily measured gene product as a stand-in for the process of interest.
The target in data set [6] is CYP3A4 (Homo sapiens, UniProt P08684). Briefly: Inhibition of CYP3A4 in human liver microsomes using Midazolam as substrate at 10 uM in presence of NADPH incubated for 10 mins. The format is ADME, Microsome. The following applies: probe midazolam.
Data set [7] is described as follows: Effect of Wnt/beta-Catenin signaling pathway in human SW480 cells assessed as reduction in BCL9L level at 5 uM incubated for 24 hrs by qRT-PCR analysis relative to control. Format: functional. The following applies: SW480, 24 h.
Data set [8] is described as follows: Effect of Wnt/beta-Catenin signaling pathway in human SW480 cells assessed as reduction in HPRT level at 5 uM incubated for 24 hrs by qRT-PCR analysis relative to control. The format is functional. Particulars: SW480, 24 h.
Data set [9] is described as follows: Effect of Wnt/beta-Catenin signaling pathway in human SW480 cells assessed as reduction in BCL9L level at 10 uM incubated for 24 hrs by qRT-PCR analysis relative to control. Format: functional. The following applies: SW480, 24 h.
The nature of data set [10]: Effect of Wnt/beta-Catenin signaling pathway in human SW480 cells assessed as HPRT level at 10 uM incubated for 24 hrs by qRT-PCR analysis relative to control. Particulars: SW480, 24 h.
Data set [11] is described as follows: Effect of Wnt/beta-Catenin signaling pathway in human SW480 cells assessed as reduction in Axin2 level at 20 uM incubated for 24 hrs by qRT-PCR analysis relative to control. Format: functional. The following applies: SW480, 24 h.
Data set [12] deals with beta-catenin-B-cell lymphoma 9 protein complex (Homo sapiens) (UniProt P35222+O00512). As to the kind of experiment: Disruption of beta-catenin/N-terminal biotinylated human BCL9 HD2 (350 to 375 residues) protein-protein interaction in human SW480 cells incubated for 1 hr followed by N-terminal biotinylated human BCL9 HD2 addition and measured after 2 hrs by immunoblot based pull-down assay. The format is cell-based. The following applies: time 3.0 hrs, DDE = dose-dependent effect.

The nature of data set [13]: Effect of Wnt/beta-Catenin signaling pathway in human SW480 cells assessed as reduction in Cyclin D1 level at 10 uM incubated for 24 hrs by qRT-PCR analysis relative to control. Format: functional. Particulars: SW480, 24 h.

Calls of active or inactive are those of the source. The calls are words filed in the database; no cut-off is given here.

CYP3A4, sequence (P08684 whole entry): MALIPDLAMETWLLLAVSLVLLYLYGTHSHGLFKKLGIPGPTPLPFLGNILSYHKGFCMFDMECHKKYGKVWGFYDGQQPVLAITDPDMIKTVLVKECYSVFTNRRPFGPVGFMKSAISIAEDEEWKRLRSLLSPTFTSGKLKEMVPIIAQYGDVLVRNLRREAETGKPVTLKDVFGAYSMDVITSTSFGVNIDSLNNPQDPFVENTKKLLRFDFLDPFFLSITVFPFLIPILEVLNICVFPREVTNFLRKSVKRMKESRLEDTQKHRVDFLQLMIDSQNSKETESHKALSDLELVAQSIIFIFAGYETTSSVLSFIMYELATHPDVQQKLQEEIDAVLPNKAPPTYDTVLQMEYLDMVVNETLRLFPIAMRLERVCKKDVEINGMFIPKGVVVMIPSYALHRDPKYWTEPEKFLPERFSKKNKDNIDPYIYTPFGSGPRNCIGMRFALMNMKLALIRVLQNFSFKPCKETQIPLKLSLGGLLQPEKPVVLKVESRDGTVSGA
CYP2C9, sequence (P11712 whole entry): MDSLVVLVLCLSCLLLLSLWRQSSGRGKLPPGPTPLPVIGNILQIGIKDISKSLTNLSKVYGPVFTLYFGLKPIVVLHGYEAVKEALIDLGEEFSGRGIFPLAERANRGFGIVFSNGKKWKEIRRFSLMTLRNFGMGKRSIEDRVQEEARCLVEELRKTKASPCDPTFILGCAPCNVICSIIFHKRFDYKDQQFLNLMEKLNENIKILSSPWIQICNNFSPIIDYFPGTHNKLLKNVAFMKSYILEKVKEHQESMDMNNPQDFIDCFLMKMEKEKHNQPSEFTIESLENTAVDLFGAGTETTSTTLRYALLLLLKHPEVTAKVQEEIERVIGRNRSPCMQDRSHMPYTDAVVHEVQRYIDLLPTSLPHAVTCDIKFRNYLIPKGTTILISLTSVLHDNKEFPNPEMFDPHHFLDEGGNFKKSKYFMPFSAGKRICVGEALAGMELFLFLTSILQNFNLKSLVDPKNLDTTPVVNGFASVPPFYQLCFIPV

By inhibition is commonly meant the change of the read-out against control, counted positive when it falls. The IC50 is the point on the concentration scale where inhibition reaches its midpoint. By half-life is commonly meant how long it takes for the measured level to halve. In the case of `CC(C)(Oc1cccc(N2CCC[C@@H](C(=O)N(Cc3ccc(-c4cnc5[nH]ccc5c4)cc3)C3CC3)C2)c1)C(=O)N1CCNCC1.Cl`, in data set [1], the inhibition result is “Active”. Further, the inhibition at 10 min, 10 µM in [2] is 91%; in data set [6], 97%. Moreover, the IC50 in data set [3] stood at 36 µM; in data set [5] it was 7 µM. Also, the half-life in data set [4] was 11.6 min. For the same molecule, the values for the level, % of control at 5 µM in data set [7] and in [8] were 77% and 99%, respectively. In addition, the level, % of control at 10 µM in [9] was found to be 52%; in data set [10], 100%; in data set [13], 54%. Further, the level, % of control at 20 µM in data set [11] was 19%. Also, in data set [12], the inhibition entry is “Dde”.

The values are drawn from ChEMBL document CHEMBL5154919, “New ZW4864 Derivatives as Small-Molecule Inhibitors for the β-Catenin/BCL9 Protein-Protein Interaction” (ACS Med Chem Lett, 2022).
